# Test results taken from patent publication US20050025705A1, “Thrombosis animal models and their use in drug discovery and development” (priority 2003, published 2005).
# “And” between values parts separate entries of the source, which are not always exact repeats. Equal values may be shown once.
# What was measured:
# [1] = test system: FeCl3-induced arterial thrombosis in C57BL/6 mice; test: FeCl3-induced carotid artery thrombosis in mice, Doppler blood flow (Example 2); assay type: in vivo; details: for efficacy in blocking thrombus formation: relatively high FeCl3 concentrations, unless an extremely high drug concentration was used
# Method: Mice were anesthetized with gas inhalation comprised of 30% oxygen (0.3 liter/min; Airgas East, Inc., Salem, N.H.) and 70% nitrous oxide (0.7 liter/min; Airgas East, Inc., Salem, N.H.). […] Louis, Mo.) to the adventitial surface of the carotid artery immediately proximal to the flow probe for 3 min and then removed. The carotid blood flow was monitored at 1, 5, 10, 20, 30 min or some times up to 60 min. Heparin was purchased from American Pharmaceutical Partners, Inc. (Los Angeles, Calif.); mice were infused with 10, 50, 200 and 1000 IU/kg, i.v. immediately prior to 2.5 or 5% FeCl3 treatment on the carotid artery. […] Aspirin (acetylsalicylic acid) and MRS2179 were purchased from Sigma. […] Data in text and figures are mean±standard errors for the indicated number (N) of animals.
# [2] = test system: 5% FeCl3-induced arterial thrombosis in C57BL/6 mice
# Method: Adult mice (18-25 g, both male and female) were used for thrombosis study. Following anesthesia by pentobarbital (50 mg/kg, i.p.), an incision of the skin was made directly on top of the right common carotid artery region. The fascia was then blunt dissected and a segment of the […] common carotid artery was exposed. A Transonic flow probe (0.5 VB) was placed on the artery with gel to obtain the baseline flow readings (as time 0) via a Transonic […] Doppler flowmeter. Two pieces of filter paper (1×11⁄2 mm) pre-soaked with 5% FeCl3 solution were placed beneath and above the carotid artery for 3 min to induce thrombosis. The filter papers were removed and rinsed with saline. The blood flow was recorded every 5, 10, 20 and 30 min of FeCl3 treatment. […] Clopidogrel was administrated for two days. […] Data are illustrated as mean±standard errors using indicated number (N) of animals. Statistical comparisons were made by analysis of variance (ANOVA; Fisher's protected least squares difference) and values were considered to be significant at p<0.05.
# [3] = test system: tail bleeding time in C57BL/6 mice; test: Mouse tail bleeding time
# Method: Mice were anesthetized as described above and placed on a 37° C. heating pad. About 2-4 mm from the tip of mouse tail (in about 1 mm diameter) was cut with a disposable surgical blade. After transection, the tail was immediately placed into a 50-ml falcon tube filled with 37° C. saline and the bleeding time was recorded up to 30 min. Bleeding time over 30 min was considered as bleeding off scale.
# Both thrombosis and bleeding studies were conducted within 2-4 hr after the second day of oral dosing.
# [4] = cited from earlier work
compound,measurement,setting,value
CNc1ncnc2c1ncn2[C@H]1C[C@H](OP(=O)(O)O)[C@@H](COP(=O)(O)O)O1 [MRS2179],effective dose,"[1]; 2.5% FeCl3-induced thrombosis, i.v.",150 mg/kg
same,potency in blocking FeCl3-induced thrombosis,"[1]; 2.5% FeCl3, compared with P2Y12 antagonists",less potent
same,efficacy in blocking thrombus formation,[1],failed to show efficacy
"CC(=O)Oc1ccccc1C(=O)O [aspirin, acetylsalicylic acid]",effect in blocking thrombosis,"[1]; 2.5% FeCl3-induced thrombosis, aspirin 10 and 30 mg/kg i.p.",Very little effect
same,efficacy in blocking thrombus formation,[1],failed to show efficacy
CSCCNc1nc(SCCC(F)(F)F)nc2c1ncn2[C@@H]1O[C@H](COP(=O)(O)OP(=O)(O)C(Cl)(Cl)P(=O)(O)O)[C@@H](O)[C@H]1O [cangrelor],efficacy in 2.5% versus 5% FeCl3-induced thrombosis,[1]; 2.5% and 5% FeCl3,differential efficacy
same,efficacy in blocking thrombus formation,[1],failed to show efficacy
COC(=O)[C@H](c1ccccc1Cl)N1CCc2sccc2C1 [clopidogrel],protection from thrombosis,[2]; 10 mg/kg,failed to protect
same,animals that retained vascular patency,[2]; 100 mg/kg p.o.,6 out of 9
same,"AUC of the relative Doppler blood flow, over controls","[2]; 100 mg/kg p.o., p<0.01",3.7 fold
same,antithrombotic effect,[2]; clinically relevant dose 1 mg/kg p.o.,No antithrombotic effect
same,dose needed for antithrombotic effect,[2]; p.o.,> 30 mg/kg
same,vascular patency,"[1]; 2.5% FeCl3-induced thrombosis, 1 mg/kg p.o.",maintained in some
same,vascular patency (animals in which maintained),"[1]; 2.5% FeCl3-induced thrombosis, 3 mg/kg p.o.",all
same,dose required to show efficacy,"[1]; 5% FeCl3-induced thrombosis, p.o.",100 mg/kg
same,efficacy in blocking thrombus formation,[1],failed to show efficacy
same,prolongation in bleeding time,[3]; 1 mg/kg p.o.,no prolongation
same,animals bleeding off scale (over 30 min),[3]; 10 mg/kg p.o.,75%
same,increase in bleeding time,"[3]; 10 mg/kg p.o., p<0.01, n=8",11 fold and 10.9 fold
same,animals bleeding off scale (over 30 min),[3]; 30 mg/kg (data not shown),100%
heparin,clotting activity,[4]; at concentrations greater than 4 ug/ml,not detectable
same,activated partial thromboplastin time (aPTT) assay times,[4]; at therapeutic range 1 to less than 3 ug/ml plasma,35 to 100 s
same,vascular patency,"[1]; 2.5% FeCl3-induced thrombosis, 200 IU/kg i.v.",maintained
same,dose required to inhibit thrombosis,"[1]; 5% FeCl3-induced thrombosis, i.v.",1000 IU/kg
same,efficacy in blocking thrombus formation,[1],failed to show efficacy
